From patent publication EP0103895A2, “Novel hydroxylamine derivatives, production and use thereof” (MEIJI SEIKA KABUSHIKI KAISHA, priority 1982, dated 1984)
Where “and” joins values, the source holds several entries; their conditions need not be identical. Equal entries are not always repeated. Where two headings read alike, the source gives them in different places.

Key:
[1] = test system: fowl roundworm (As. galli); test: Anthelmintic test in chickens artificially infected with fowl roundworm, compound added to feed, E.P.G. and worm count up to 21st day (Test Examples A2, B2, C2, D2); assay type: in vivo, Ascaridia galli; settings: chicken
Protocol: Chickens artificially infected with fowl roundworm (As. galli) were employed in groups each of two chickens.
Fecal matter testing was conducted before initiation of the test and on the 7th, 14th and 21st day after initiation of the test. Reduction in worm egg number was examined by calculating E.P.G. (worm eggs per 1 g of fecal matter), and the number of discharged worm bodies and the number of worm bodies remaining in the enteron when the chicken was killed on 21st day were counted to determine the anthelmintic percentage, from which the anthelmintic effect was judged.

[2] = test system: fowl roundworm (Ascaridia galli); test: Anthelmintic test in chickens artificially infected with fowl roundworm, single oral dose in gelatin capsule, worm bodies counted within 48 hours (Test Examples A1, B1, C1, D1); assay type: in vivo; settings: Ascaridia galli, po, 48 h, chicken, chickens No.1-3, read-out: Anthelmintic effect after 48 hours
Protocol: Chickens infected artificially with fowl roundworm (Ascaridia galli) were employed in groups each consisting of three chickens. Fecal matter testing was conducted before administration of medicine to confirm infection with the worm. The quantity of the compound provided for testing was 10 mg and 20 mg per Kg of body weight, which was orally administered each in a gelatin capsule to the chicken. The number of worm bodies discharged within 48 hours after administration of medicine was counted, the chicken was killed after 48 hours and the number of worm bodies remaining in the enteron was counted to determine the anthelmintic percentage, wherefrom the antihelmintic effect was judged.
The same as that in Test Example Al.
The same as that in Test Example Al except that the compound provided for testing was in quantities of 30 mg and 50 mg per Kg of body weight, which were orally administered to the chickens in gelatin capsules.
The same as that in Test Example Al, except that the compounds provided for testing were used in quantities of 15 mg and 30 mg per Kg of body weight, which were orally administered each in a gelatin capsule to the chicken.

[3] = test system: canine filaria; Dirofilaria immitis; test: Test of anthelmintic effect against canine filaria in naturally infected dogs, subcutaneous injection, microfilaria in blood and adult filaria at autopsy (Test Examples A10, B10, C10, D10); assay type: in vivo; settings: for inhibition in vivo at 30 mg/kg: Dirofilaria immitis, sc, 240 h
Protocol: Eight dogs infected with canine filaria; Diro- filaria immitis (naturally infected dogs) were employed in groups each of two dogs.
The compounds provided for tests were Compound Nos. Al, A3 and A12. 20 mg of each was administered by subcutaneous injection per Kg of body weight to each of the two dogs as a suspension in 1% "Tween 80" solution once per day for three days. As control, 3 ml of the 1% "Tween 80" solution was subcutaneously injected into two dogs once per day for three days.
Before administration and on the 10th day after administration, 20 µl of earlobe blood of each dog was sampled and examined to determine the change in microfilaria (mf) according to the concentrated smear color method, and judgement on the effect on microfilaria (mf) was made. Judgement relating to adult filaria was made on the 10th day after the last administration by killing the dogs and carrying out autopsis.
30 mg of each compound was administered by subcutaneous injection per Kg of body weight to each of the two dogs as a suspension in 1% "Tween 80" solution once per day for three days. As control, 3 ml of the 1% "Tween 80" solution was subcutaneously injected into two dogs once per day for three days.
30 mg of each compound was administered by subcutaneous injection per Kg of body weight to each of two dogs as a suspension in 1% "Tween 80" solution once per day for three days. As control, 3 ml of the 1% "Tween 80" solution was subcutaneously injected to two dogs once per day for three days.
20 mg of each compound was administered by subcutaneous injection per kg of body weight once per day for three days to each of two dogs. These compounds were administered as a suspension in 1% "Tween 80" in the case of Compound No.Dl3 and as solutions dissolved in distilled water for injection in the case of Compounds Nos. D10 and D16, respectively. As control, 3 ml of the 1% "Tween 80" solution was subcutaneously injected into two dogs once per day for three days.

[4] = test system: fowl roundworm (As. galli); test: Anthelmintic test in chickens infected with fowl roundworm, compound added to feed at 250 ppm and 1,000 ppm, E.P.G. and worm count on 5th day (Test Example E2); assay type: in vivo, Ascaridia galli; settings: for E.P.G. after 5 days: worm egg number in 1 g of fecal matter; for anthelmintic effect / inhibition in vivo at 250 ppm / inhibition in vivo at 1000 ppm: 5th day; for inhibition in vivo at 250 ppm / inhibition in vivo at 1000 ppm: Ascaridia galli, feed or water, 120 h, read-out: Anthelmintic effect
Protocol: Chickens infected with fowl roundworm (As. galli) were employed in groups each of two chickens.
The compound provided for the test was dissolved in a small amount of ethyl alcohol and adsorbed on defatted rice bran and added to chicken feed at levels of 250 ppm and 1,000 ppm. As control, a feed containing no such compound was employed.
Fecal matter testing was conducted before initiation of the test and on the 5th day after initiation of the test. The reduction in worm egg count was examined by calculating the E.P.G. (worm egg number in 1 g of fecal matter). The number of discharged worm bodies and the number of worm bodies remaining in the enteron when the chicken was killed on 5th day were counted to determined the anthelmintic percentage, from which the anthelmintic effect was judged.

[5] = test system: fowl roundworm (As. galli); test: Anthelmintic test in chickens infected with fowl roundworm, single oral dose of 40 mg per Kg, worm bodies counted within 24 hours (Test Example E1); assay type: in vivo, Ascaridia galli; settings: 40 mg per Kg oral in gelatin capsule; for inhibition in vivo at 40 mg/kg: Ascaridia galli, 24 h, chicken No.1, read-out: Anthelmintic effect after one day
Protocol: Chickens infected with fowl roundworm (As. galli) were employed in groups each consisting of five chickens. The compound provided for testing was orally administered in a quantity of 40 mg per Kg of body weight to each chicken in a gelatin capsule. The number of worm bodies discharged within 24 hours after administration of the medicine was counted. Then the chicken was killed, and the number of worm bodies remaining in the enteron was counted to determine the anthelmintic percentage, wherefrom the anthelmintic effect was judged.

[6] = 1000 ppm in feed, chicken No. 1
[7] = 1000 ppm in feed, chicken No. 2

| Structure (SMILES) | E.P.G. after 5 days ([4]; 250 ppm in feed, chicken No. 1) | anthelmintic effect ([4]; 250 ppm in feed, chicken No. 2) | E.P.G. after 5 days ([4]; 250 ppm in feed, chicken No. 2) | E.P.G. after 5 days [4, 6] | anthelmintic effect [4, 7] | E.P.G. after 5 days [4, 7] | inhibition in vivo at 250 ppm ([4]; 250 ppm in feed, chicken No. 1) [%] | inhibition in vivo at 1000 ppm [4, 6] [%] | inhibition in vivo at 40 mg/kg [5] [%] | Anthelmintic effect after one day ([5]; chicken No.2) | Anthelmintic effect after one day ([5]; chicken No.3) | Anthelmintic effect after one day ([5]; chicken No.4) | Anthelmintic effect after one day ([5]; chicken No.5) | other results |
| --- | --- | --- | --- | --- | --- | --- | --- | --- | --- | --- | --- | --- | --- | --- |
| C=CCON(CC=CC)C(C)=O [Compound C9] |  |  |  |  |  |  |  |  |  |  |  |  |  | inhibition in vivo at 25 ppm ([1]; Ascaridia galli, feed or water, 504 h, 25 ppm in feed, read-out: Anthelmintic effect): 100%; inhibition in vivo at 50 ppm ([1]; Ascaridia galli, feed or water, 504 h, 50 ppm in feed, read-out: Anthelmintic effect): 100%; Change of E.P.G. 21st day ([1]; 25 ppm in feed): 0; Change of E.P.G. 21st day ([1]; 50 ppm in feed): 0; inhibition in vivo at 30 mg/kg ([2]; 30 mg/Kg oral in gelatin capsule): 100%; inhibition in vivo at 50 mg/kg ([2]; 50 mg/Kg oral in gelatin capsule): 100%; inhibition in vivo at 30 mg/kg ([3]; dog, 30 mg/Kg x 3, subcutaneous injection, read-out: Effect on adult filaria: Percent of worms killed): 70%; inhibition in vivo at 30 mg/kg ([3]; dogs, administration of 30 mg/Kg repeated three times, given as about 50% or more, read-out: anthelmintic effect against adult filaria): ≥ 50%; Number of microfilaria/20 µl On 10th day after the last administration ([3]; dog, 30 mg/Kg x 3, subcutaneous injection, suspension in 1% Tween 80): 0 /20 µl; Effect on adult filaria: Number of worms killed/ Total parasite ([3]; dog, 30 mg/Kg x 3, subcutaneous injection, 30 mg/kg): 14/20 and 19/27; anthelmintic effect against microfilaria (mf) ([3]; dogs, administration of 30 mg/Kg repeated three times): marked anthelmintic effect |
| C#CCON(CC#C)C(C)=O [Compound E1, N,O-dipropargyl-N-acetylhydroxylamine] | 0 | +++ (100%) | 0 | 0 | +++ (100%) | 0 | 100 | 100 | 100 | +++ (100%) | +++ (100%) | +++ (100%) | +++ (100%) |  |
| C#CCON(CC#C)C(=O)CC [Compound E2, N,O-dipropargyl-N-propionylhydroxylamine] | 0 | +++ (100%) | 0 | 0 | +++ (100%) | 0 | 100 | 100 | 100 | +++ (100%) | +++ (100%) | +++ (100%) | +++ (100%) |  |
| C#CCON(CC#C)C(=O)CCC [Compound E3, N,O-dipropargyl-N-butylylhydroxylamine] | 0 | +++ (100%) | 0 | 0 | +++ (100%) | 0 | 100 | 100 | 100 | +++ (100%) | +++ (100%) | +++ (100%) | +++ (100%) |  |
| C#CCON(CC#C)C(=O)CCCC [Compound E4, N,O-dipropargyl-N-valerylhydroxylamine] | 0 | +++ (100%) | 0 | 0 | +++ (100%) | 0 | 100 | 100 | 100 | +++ (100%) | +++ (100%) | +++ (100%) | +++ (100%) |  |
| C#CCON(CC#C)C(=O)CCCCC [Compound E5, N,O-dipropargyl-N-caproylhydroxylamine] | 0 | +++ (100%) | 0 | 0 | +++ (100%) | 0 | 100 | 100 | 100 | +++ (100%) | +++ (100%) | +++ (100%) | +++ (100%) |  |
